Structures are written as SMILES. Square brackets hold non-standard residues; d marks the D form. Peptide text beside a SMILES is read from it.

One data set relates to E. coli. As to the kind of experiment: Geometric mean of MICs, selectivity and targeting indices. The format is cell-based. The settings on record: for TI Pathogenic strains (targeting index): GM(E. coli)/GM(other pathogenic strains); for TI All (TIall, targeting index): all strains, smaller = greater specificity for E. coli; for GM E. coli: geometric mean of MICs against the 6 E. coli strains, >128 counted as 256 μM.

For another data set, the system named is Beneficial strains. Nature of the data set: Geometric mean of MICs. As to conditions: geometric mean of MICs against beneficial strains; >128 counted as 256 μM. Format: cell-based.
The test system of the next data set is E. coli 25922. Nature of the data set: Outer membrane permeability. The format is cell-based. The settings on record: 2 μM peptide, relative to 10 μg/mL polymyxin B, 5 mM HEPES pH 7.4.
The subject of another data set is E. coli ATCC25922. Nature of the data set: Salt, serum, acid and alkaline sensitivity. Format: cell-based. The settings on record: for MIC, Control: absence of physiological salts, serum, acid and alkaline; for MIC, FeCl3: in presence of 4μM FeCl3 (final); for MIC, MgCl2: in presence of 1 mM MgCl2; for MIC, KCl: in presence of 4.5 mM KCl (final); for MIC, NaCl: in presence of 150 mM NaCl (final); for MIC, PH=2: peptide incubated at pH=2 for 4 h prior to MIC determination; for MIC, PH=4: peptide incubated at pH=4 for 4 h prior to MIC determination; for MIC, PH=10: peptide incubated at pH=10 for 4 h prior to MIC determination; for MIC, PH=12: peptide incubated at pH=12 for 4 h prior to MIC determination.

For another data set, the system named is IPEC-J2 cells. Nature of the data set: Cytotoxicity MTT assay. Format: cell-based, porcine. As to conditions: 24 h, 37°C, 128 μM peptide, three independent assays. On the technique in general: Tetrazolium assays rely on reduction of a dye to a coloured formazan, in cell work by metabolically active cells.
Another data set has as its system HEK293T cells. As to the kind of experiment: Cytotoxicity MTT assay. Format: cell-based, human. As to conditions: 24 h, 37°C, 128 μM peptide, three independent assays.

In the case of `CC[C@H](C)[C@H](NC(=O)CNC(=O)[C@H]1CCCN1C(=O)[C@H](CCCCN)NC(=O)[C@H](Cc1c[nH]c2ccccc12)NC(=O)[C@@H](NC(=O)[C@H](CCCCN)NC(=O)[C@H](CCCCN)NC(=O)[C@@H](N)Cc1c[nH]c2ccccc12)[C@@H](C)CC)C(=O)N[C@@H](CCCCN)C(=O)N[C@@H](CCCCN)C(=O)N[C@@H](Cc1c[nH]c2ccccc12)C(=O)N[C@H](C(=O)N[C@@H](CCCCN)C(=O)NCC(=O)NCC(=O)NCC(=O)N[C@@H](CCC(N)=O)C(=O)N[C@@H](CCCCN)C(=O)N[C@@H](CCCNC(=N)N)C(=O)N1CCC[C@H]1C(=O)N[C@@H](CCCNC(=N)N)C(=O)N[C@H](C(=O)N[C@@H](CCCNC(=N)N)C(=O)N[C@@H](CC(C)C)C(=O)N[C@@H](CO)C(=O)N[C@@H](C)C(=O)O)C(C)C)[C@@H](C)CC` [Peptide 11] (H-WKKIWK[dP]GIKKWIKGGGQKRPRVRLSA-OH; N-terminus and C-terminus assumed), in the data set with E. coli (smaller = greater specificity), the “TI Pathogenic strains (targeting index)” value amounted to 0.020. Besides, in the data set on E. coli (MHC/GM (E. coli), MHC >128 counted as 256 μM, larger = greater cell selectivity), the “SI E. coli (selectivity index)” value stood at 80.630. Further, in the data set with E. coli, the “TI All (TIall, targeting index)” value was 0.028 and the “GM E. coli” value is 3.175 µM. In the data set with E. coli (from TIall), the “TIall lower than that of melittin” value came out at 31 times and the “increase of specificity for E. coli relative to parental peptide 2” value turned out to be 2.4 times. Besides, the “GM Beneficial strains” value with Beneficial strains stood at 256.000 µM. The “outer membrane permeability (NPN uptake)” value in the data set on E. coli 25922 was 61%. For the same molecule, in the data set with E. coli ATCC25922, the “MIC, Control” value came to 2 µM; the “MIC, FeCl3” value came to 4 µM; the “MIC, MgCl2” value is 16 µM; the “MIC, KCl” value amounted to 2 µM. In the data set on E. coli ATCC25922, the “MIC, NaCl” value was determined as 32 µM; the “MIC, PH=2” value was found to be 4 µM; the “MIC, PH=4” value was determined as 4 µM; the “MIC, PH=10” value was determined as 2 µM. Also, the “MIC, PH=12” value in the data set with E. coli ATCC25922 stood at 4 µM.
Regarding `CC[C@H](C)[C@H](NC(=O)CNC(=O)[C@H]1CCCN1C(=O)[C@H](CCCCN)NC(=O)[C@H](Cc1c[nH]c2ccccc12)NC(=O)[C@@H](NC(=O)[C@H](CCCCN)NC(=O)[C@H](CCCCN)NC(=O)[C@H](Cc1c[nH]c2ccccc12)NC(=O)[C@@H](NC(=O)[C@H](CCCCN)NC(=O)[C@H](CCCCN)NC(=O)[C@@H](N)Cc1c[nH]c2ccccc12)[C@@H](C)CC)[C@@H](C)CC)C(=O)N[C@@H](CCCCN)C(=O)N[C@@H](CCCCN)C(=O)N[C@@H](Cc1c[nH]c2ccccc12)C(=O)N[C@H](C(=O)N[C@@H](CCCCN)C(=O)N[C@@H](CCCCN)C(=O)N[C@@H](Cc1c[nH]c2ccccc12)C(=O)N[C@H](C(=O)N[C@@H](CCCCN)C(=O)O)[C@@H](C)CC)[C@@H](C)CC` [Peptide 4] (H-WKKIWKKIWK[dP]GIKKWIKKWIK-OH; N-terminus and C-terminus assumed), the “TI Beneficial strains (targeting index)” value in the data set with E. coli (GM(E. coli)/GM(beneficial strains), smaller = greater specificity) is reported as 0.022. Besides, the “TI Pathogenic strains (targeting index)” value in the data set with E. coli (smaller = greater specificity) was found to be 0.445. For the same molecule, in the data set with E. coli, the “TI All (TIall, targeting index)” value was 0.233 and the “GM E. coli” value came to 1.122 µM. The cells killed result with IPEC-J2 cells was “approximately 99%”. For the same molecule, in the data set with Beneficial strains, the “GM Beneficial strains” value is 50.797 µM. In the data set with E. coli ATCC25922, the “MIC, Control” value was found to be 2 µM; the “MIC, FeCl3” value turned out to be 2 µM; the “MIC, MgCl2” value was 2 µM; the “MIC, KCl” value was determined as 2 µM. Further, in the data set on E. coli ATCC25922, the “MIC, NaCl” value is 2 µM; the “MIC, PH=2” value came out at 2 µM; the “MIC, PH=4” value turned out to be 2 µM; the “MIC, PH=10” value was determined as 2 µM. Also, the “MIC, PH=12” value with E. coli ATCC25922 amounted to 2 µM. In addition, the cells killed result in the data set on HEK293T cells is recorded as “approximately 99%”.

The values above are taken from article doi:10.1101/679977v1 (bioRxiv, 2019).
